From patent US20090215783A1, “COMPOSITION FOR INDUCTION OR INHIBITION OF STEM CELL DIFFERENTIATION” (CHOONGWAE PHARMA CORPORATION, priority 2006, published 2009)

What was measured:
hBMMSC = test: Cell proliferation assay (CellTiter 96) in hBMMSC; assay type: cell-based, human; conditions: treated alone; for cell proliferation: 20 μM
Method: Cell proliferation assay: To investigate the cytotoxicity of the test compounds for hBMMSC, hBMMSC were exposed to the test compounds for 6-7 days at the same condition above (method b and c). Cell proliferation was assessed using CellTiter 96 Aqueous One Solution (Promega, #G3581). Absorbance at 490 nm of each well was determined with a microplate reader (Molecular Device) and % growth inhibition was calculated compared with control.

[1] = test system: MyoD and Myf5 protein expression in C2C12 cells; test: Expression of MyoD and Myf5 (Western immunoblot) in C2C12 cells; assay type: cell-based, Murine
Method: a. Cell culture: Murine C2C12 myoblastic cell line (satellite cells from thigh muscle) purchased from American Tissue Type Collection (ATCC) was maintained in exponential phase of growth using 10% FBS/DMEM with Glutamax designed as GM (growth medium) supplied with antibiotic solution (Penicillin and Streptomycin) in a controlled humidified air atmosphere supplied with 5% CO2, at 37° C. in a multiwell or tissue culture Petri dishes (Corning-Costar Inc U.S.A.).
b. Induction of differentiation and test compound treatment: Every other day the cells were washed twice with phosphate buffered saline (PBS) and medium was changed until they reached 100% confluence. Confluent cells (myoblasts of the same cell density fully covering surface dish) were then guided to post mitotic status, and differentiation and fusion were initiated by replacing GM with 2% (v/v) horse serum HS/DMEM designed as DM (differentiating medium). In the above mentioned conditions C2C12 myoblasts easily and fully differentiate into myotubes, therefore we could follow up modifications of differentiation process during 5 subsequent days. During the study freshly prepared media without or with the experimental factors were changed every 24 hours. Test compounds were dissolved in DMSO and diluted with culture medium. Test compounds (if not specified, 10 μM was used, final DMSO 0.1% v/v) or DMSO (0.1% v/v) were added to the medium.
c. Expression of MyoD and Myf5: Cells were lysed and protein expression levels were analyzed by Western-immunoblot analysis, as described in the literature (Verma et al., British J Pharmacol, 2004, 143, 106-13). Equal amount of protein samples were resolved by sodium dodecyl sulphate poly-acrylamide gel electrophoresis (SDS-PAGE) and transferred to nitrocellulose membranes. The membranes were blocked with 5% bovine serum albumin (BSA) and incubated with the indicated primary antibodies for 12˜h: polyclonal C20 antion MyoD (from Santa-Cruz, Biotechnology, Santa Cruz, Calif.) diluted 1/400, polyclonal anti-Myf-5 directed against the COOH-terminal portion of the protein. After several washes in PBS, membranes were incubated with chemiluminescence reagents.

[2] = test system: Mouse embryonic stem (ES) cells, TC1; test: Cardiomyogenesis modulating activity assay (alpha-MHC promoter EGFP, embryoid bodies, FACS/fluorescence microscopy); assay type: cell-based; conditions: for Cardiomyogenesis: fold change of EGFP expression level compared with DMSO control: embryoid bodies treated for 5 days
In short: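 Mouse TC1 ES cells carrying an alpha-MHC promoter-EGFP reporter were formed into embryoid bodies (~600 cells, 2 days hanging drop, 2 days suspension), plated, then exposed to compounds (final 0.05% DMSO) for 5 days. Cardiomyogenesis assessed by EGFP via FACS after trypsin dissociation, fluorescence microscopy, and daily counts of beating EBs.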

[3] = test system: β-catenin/TCF transcription; test: TopFlash reporter gene assay in SW480 cells; assay type: cell-based; conditions: Homo sapiens; SW480 cells transfected with β-catenin/TCF luciferase construct; 24 hours treatment; dual luciferase assay; read-out: IC50, inhibition of β-catenin/TCF reporter gene construct
Method: FIG. 2. Compound A (Serial No. 111 in Table 2) inhibits β-catenin/TCF transcription. […] SW480 cells (10^5) were transfected with β-catenin/TCF luciferase construct. Cells were treated with Compound A (1-50 μM). 24 hours after the treatment lysates were prepared and subjected to dual luciferase assay.
FIG. 3. Compound B (Serial No. 10 in Table 2) inhibits β-catenin/TCF transcription. […] SW480 cells ([…]) were transfected with β-catenin/TCF luciferase construct. Cells were treated with Compound B (1-50 μM). 24 hours after treatment lysates were prepared and subjected to dual luciferase assay.
SW480 cells were transfected using Superfect™ transfection reagent (Qiagen, 301307). Cells were trypsinized briefly 1 day before transfection and plated on 6 well plate (5×10^5 cells/well) so that they were 50-80% confluent on the day of transfection.
Four microgram (TOPFlash) and one microgram (pRL-null) of DNAs were diluted in […] of serum-free medium, and 30 μl of Superfect™ transfection reagent was added. The DNA-Superfect mixture was incubated at room temperature for 15 min, and then, 1 ml of 10% FBS DMEM was added to this complex for an additional 3 hours of incubation. While complexes were forming, cells were washed with PBS twice without antibiotics.
The DNA-Superfect™ transfection reagent complexes were applied to the cells before incubating at 37° C. at 5% CO2 for 3 hours. […]

[4] = test system: human bone marrow derived-mesenchymal stem cells (hBMMSC); test: Osteogenesis modulating activity assay by test compound alone (ALP activity); assay type: cell-based; conditions: for fold induction at 20 µM: Homo sapiens, 168 h, 20 μM test compound alone, six to seven days, read-out: Osteogenesis: fold change of ALP activity compared with DMSO control
In short: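 hBMMSC from normal subjects were treated with compound at 20 μM final (0.01% DMSO) at 37° C, 5% CO2, with medium and compound renewed every two days. Alkaline phosphatase activity in cell lysates was measured colorimetrically after six to seven days.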

[5] = test system: human bone marrow derived-mesenchymal stem cells (hBMMSC); test: Osteogenesis modulating activity with osteogenic induction cocktails (ALP activity, mineralization); assay type: cell-based; conditions: for mineralization of hBMMSC: co-treated with osteogenic induction cocktails (OIC); for stimulation of mineralization at various concentrations: even at the 0.5 μM
Method: Cell culture: Human bone marrow derived-mesenchymal stem cells (hBMMSC) were isolated from normal subjects.
Osteogenesis modulating activity of test compounds with induction media: hBMMSC were culture with culture media containing osteogenic induction cocktails (OIC, 0.1 μM dexamethasone, 50 μM ascorbate-2-phosphate, 10 mM b-glycerophosphate). Four to five days after incubation, Alkaline phosphatase (ALP) activity of cell lysates were measured by colorimetry. For the determination of mineralization within the cells, Von Kossa staining or Alizarin Red S assay was performed 10-14 days after incubation.

ALP mRNA in hBMMSC = test: RT-PCR of alkaline phosphatase (ALP) mRNA in hBMMSC; assay type: cell-based, human; conditions: compound treatment for 4 days
Method: RT-PCR. To analyze the mRNA levels for Alkaline phosphatase (ALP), total RNA was isolated using Trizol (Invitrogen-GIBCO-BRL, Baltimore, Md.) from hBMMSC with or without compound treatment for 4 days. 2 μg RNA was reverse transcribed in a total volume of 20 μl with random hexamer (50 ng), and using the Superscript II reverse transcription system (Invitrogen-GIBCO-BRL), according to manufacturer's guidelines. PCR was carried out in a 50 μl volume containing 5 μl cDNA, 100 pmol primers, 100 μM dNTPs, 1×Taq buffer and 1.5 mM MgCl2. Reaction mixtures were heated to 80° C. for 10 min, after which Taq was added. cDNAs were amplified for 25 ([…]) or 15 (GAPDH) cycles. One round of amplification consisted of 1 min at 94° C., 2 min at 60° C., and 2 min at 72° C., with a final extension time of 10 min at 72° C. The PCR products were resolved and visualized by electrophoresis in a 2% gel, stained with ethidium bromide. ALP PCR primers used were, 5′-[…]-3′ and 5′-[…]-3′. Primer pairs for GAPDH were 5′-[…]-3′ and 5′-[…]-3′. A housekeeping gene, GADPH was used as a control.

[6] = test system: ANP and Nkx2.5 mRNA in the ES cells; test: Real time RT-PCR of cardiomyogenesis marker genes ANP and Nkx2.5; assay type: cell-based, mouse; conditions: ES cells treated for 7 and 10 days
Method: d. Real time RT-PCR: To analyze the mRNA levels of cardiomyogenesis marker genes, Atrial Natriuretic Peptide (ANP) and Nk×2.5, total RNA was isolated using Trizol (Invitrogen-GIBCO-BRL, Baltimore, Md., USA) from stem cells with or without Compound E treatment for 7 days and 10 days. Relative expression level of each mRNA was measured.

SMILES: CN(C)c1c(Cl)cccc1CN1C[C@H]2N(C(=O)CN(C)N2C(=O)NCc2ccccc2)[C@@H](Cc2ccc(O)cc2)C1=O [#10]
- inhibition at 20 µM (hBMMSC; Homo sapiens, read-out: cell proliferation inhibited): 51%
- Myf-5 expression, compound without Wnt1 [1]: reduced
- expression of Myf5 compared with DMSO control, dose dependence ([1]; 5 and 10 μM): dose-dependently decreased
- Myf-5 expression on co-treatment with Wnt1 conditioned medium ([1]; co-treated with Wnt1): abolished Myf-5 enhancing activity of Wnt1
- Myf5 expression on co-treatment of CBP ([1]; co-treatment of CBP): not changed
- Myf5 expression on co-treatment of p300 ([1]; co-treatment of p300): rescues the decrease of Myf5 expression
- expression of fluorescence, ratio Compound : DMSO control (control = 1) ([2]; 10 μM for 5 days, mouse embryonic stem cells): 0.26
- Cardiomyogenesis: fold change of EGFP expression level compared with DMSO control ([2]; FACS): 0.26 fold
- IC50 [3]: 6.98 µM
- cellular alkaline phosphatase activity ([4]; 20 μM, hBMMSC): strongly inhibited
- ALP level reduced ([4]; 20 μM, treated alone to hBMMSC): 77%
- fold induction at 20 µM ([4]; hBMMSC): 0.23
- ALP level reduced compared with vehicle control group ([5]; 20 μM, co-treated with osteogenic induction cocktails): 80%

SMILES: O=C1C(Cc2ccc(OCc3ccccc3)cc2)N2C(=O)CN(Cc3ccc(F)cc3)N(C(=O)NCc3ccccc3)C2CN1Cc1cccc(C(F)(F)F)c1 (centres unmarked) [#66]
- cell proliferation (hBMMSC): 83%
- Cardiomyogenesis: fold change of EGFP expression level compared with DMSO control ([2]; FACS): 3.13 fold
- ALP mRNA expression (ALP mRNA in hBMMSC): increased
- ALP level enhanced ([4]; 20 μM, treated alone to hBMMSC): 202%
- fold induction at 20 µM ([4]; hBMMSC): 2.02
- mineralization of hBMMSC [5]: strongly induced mineralization
- stimulation of mineralization at various concentrations [5]: osteogenesis inducing activity

SMILES: O=C1[C@H](Cc2ccc(F)c(F)c2)N2C(=O)CN(Cc3ccc(F)cc3)N(C(=O)NCc3ccccc3)[C@H]2CN1Cc1cccc(C(F)(F)F)c1 [#71]
- expression of fluorescence under the fluorescence microscope compared with DMSO control ([2]; 10 μM, Day 5): significantly enhanced
- fold increase of alpha-MHC positive cells compared to DMSO treated EB ([2]; 10 μM, FACS): 4.6 fold
- cell population expressing fluorescence (alpha-MHC positive) ([2]; 10 μM, FACS analysis of embryoid bodies): 2.50%
- Cardiomyogenesis: fold change of EGFP expression level compared with DMSO control ([2]; FACS): 4.63 fold
- cardiomyogenesis differentiation promoting effect at low concentration ([2]; even at the 0.3 μM): distinctive
- cardiomyogenesis differentiation promoting activity (EGFP expression), concentration dependence ([2]; various concentrations): concentration-dependent
- expression level of ANP mRNA compared with DMSO control [6]: strongly increased
- expression level of Nkx2.5 mRNA compared with DMSO control [6]: strongly increased

SMILES: O=C1[C@H](Cc2ccc(Cl)cc2)N2C(=O)CN(Cc3ccccc3)N(C(=O)NCc3ccccc3)[C@H]2CN1CCc1ccc(Cl)cc1 [#82]
- cell proliferation (hBMMSC): 127%
- Cardiomyogenesis: fold change of EGFP expression level compared with DMSO control ([2]; FACS): 0.97 fold
- ALP mRNA expression (ALP mRNA in hBMMSC): increased
- ALP level enhanced ([4]; 20 μM, treated alone to hBMMSC): 200%
- fold induction at 20 µM ([4]; hBMMSC): 2
- mineralization of hBMMSC [5]: strongly induced mineralization
- stimulation of mineralization at various concentrations [5]: osteogenesis inducing activity

SMILES: CC(C)[C@H]1C(=O)N(Cc2cccc(Br)c2)C[C@H]2N1C(=O)N(C)N2C(=O)NCc1ccccc1 [#106]
- Cardiomyogenesis: fold change of EGFP expression level compared with DMSO control ([2]; FACS): 1.25 fold
- fold induction at 20 µM ([4]; hBMMSC): 0.37

SMILES: CCCCOCCCN1C[C@H]2N(C(=O)N(C)N2C(=O)NCc2ccccc2)[C@@H](CCSC)C1=O [#107]
- Cardiomyogenesis: fold change of EGFP expression level compared with DMSO control ([2]; FACS): 0.59 fold
- fold induction at 20 µM ([4]; hBMMSC): 0.66

SMILES: CN1C(=O)N2C(CN(CCSCc3ccccc3)C(=O)[C@@H]2Cc2ccc(O)cc2)N1C(=O)NCc1ccccc1 (some centres unmarked) [#108]
- Cardiomyogenesis: fold change of EGFP expression level compared with DMSO control ([2]; FACS): 1.19 fold
- fold induction at 20 µM ([4]; hBMMSC): 0.94

SMILES: CCC(C)[C@H]1C(=O)N(Cc2cccc(Cl)c2)C[C@H]2N1C(=O)N(C)N2C(=O)NCc1ccccc1 (some centres unmarked) [#109]
- Cardiomyogenesis: fold change of EGFP expression level compared with DMSO control ([2]; FACS): 0.97 fold
- fold induction at 20 µM ([4]; hBMMSC): 1

SMILES: NC(=O)CC1C(=O)N(CCSCc2ccccc2)CC2N1C(=O)CN(Cc1ccc(F)cc1)N2C(=O)NCc1ccccc1 (centres unmarked) [#110]
- Cardiomyogenesis: fold change of EGFP expression level compared with DMSO control ([2]; FACS): 1.18 fold
- fold induction at 20 µM ([4]; hBMMSC): 0.63

SMILES: CN1CC(=S)N2[C@H](Cc3ccc(O)cc3)C(=O)N(Cc3cccc4ccccc34)C[C@H]2N1C(=O)NCc1ccccc1 [#111]
- Cardiomyogenesis: fold change of EGFP expression level compared with DMSO control ([2]; FACS): 0.10 fold
- IC50 [3]: 1.46 µM
